Where a SMILES comes first, the peptide text is derived from it. Bridges are numbered along the chain shown (N, C = ends). [ ]: non-standard residue; d: D form. Nle = CCCC[C@H](N)C(=O)O
molecular target: Rat whole blood (Rattus norvegicus, UniProt P15384); type: cell-based; settings: IL-17A release, thapsigargin, 24 Hr, at least 2 replicates
Sequence (P15384 whole entry): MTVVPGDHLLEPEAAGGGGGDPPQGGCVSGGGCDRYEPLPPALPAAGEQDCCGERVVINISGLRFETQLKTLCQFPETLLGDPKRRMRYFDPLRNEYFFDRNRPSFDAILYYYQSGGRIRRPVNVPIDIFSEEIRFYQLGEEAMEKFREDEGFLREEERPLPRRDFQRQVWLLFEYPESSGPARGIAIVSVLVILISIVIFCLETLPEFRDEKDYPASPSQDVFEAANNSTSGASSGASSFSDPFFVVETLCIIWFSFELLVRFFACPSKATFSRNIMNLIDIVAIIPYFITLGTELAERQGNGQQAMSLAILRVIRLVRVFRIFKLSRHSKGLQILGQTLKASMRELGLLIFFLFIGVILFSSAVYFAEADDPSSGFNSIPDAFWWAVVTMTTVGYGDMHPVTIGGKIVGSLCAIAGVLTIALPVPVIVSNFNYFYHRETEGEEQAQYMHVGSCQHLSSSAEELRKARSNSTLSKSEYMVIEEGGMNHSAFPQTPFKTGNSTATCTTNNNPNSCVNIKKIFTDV

Question: How did the IC50 turn out when “H-S[Nle]D[Nle]RCSASVECKQKCLVAIGSIFGKCMNKKCKCYPR-NH2 (cysteine pairing not given here) [compound 77]” was run?
Answer: Its IC50 is 0.39 nM.

Question: With CCCC[C@H](NC(=O)[C@@H]1CCCN1)C(=O)N[C@@H](CC(=O)O)C(=O)N[C@@H](CCCC)C(=O)N[C@@H](CCCNC(=N)N)C(=O)N[C@H]1CSSC[C@@H]2NC(=O)[C@H](CCCCN)NC(=O)CNC(=O)[C@H](Cc3ccccc3)NC(=O)[C@H]([C@@H](C)CC)NC(=O)[C@@H]3CSSC[C@@H](C(N)=O)NC(=O)[C@@H]4CCCN4C(=O)[C@H](Cc4ccc(O)cc4)NC(=O)[C@@H]4CSSC[C@H](NC(=O)[C@H](CCCCN)NC(=O)[C@H](CCC(N)=O)NC(=O)[C@H](CCCCN)NC(=O)[C@H](CSSC[C@H](NC(=O)[C@H](CCCCN)NC(=O)[C@H](CCCCN)NC(=O)[C@H](CC(N)=O)NC(=O)[C@H](CCCC)NC2=O)C(=O)N[C@@H](CCCCN)C(=O)N4)NC(=O)[C@H](CCC(=O)O)NC(=O)[C@H](C(C)C)NC(=O)[C@H](CO)NC(=O)[C@H](C)NC(=O)[C@H](CO)NC1=O)C(=O)N[C@@H](CC(C)C)C(=O)N[C@@H](CCCCN)C(=O)N[C@@H](C)C(=O)N[C@@H]([C@@H](C)CC)C(=O)NCC(=O)N3 [compound 81] (H-P[Nle]D[Nle]RCSASVECKQKCLKAIGCIFGKC[Nle]NKKCKCYPC-NH2; disulfide 6-27, 12-32, 16-34, 22-37) as the compound, how does the IC50 read?
Answer: The IC50 was 0.81 nM.

Question: “H-S[Nle]D[Nle]RCSASVECKQKCLKAIGSIFGKCMNKKCKC[F(4-F)]PR-NH2 [compound 87]” was tested. Which IC50 did it give?
Answer: Its IC50 is 0.34 nM.

Question: With CCCC[C@@H]1NC(=O)[C@@H]2CSSC[C@H](NC(=O)[C@H](CCCNC(=N)N)NC(=O)[C@H](CCCC)NC(=O)[C@H](CC(=O)O)NC(=O)[C@H](CCCC)NC(=O)[C@@H](N)CO)C(=O)N[C@@H](CO)C(=O)N[C@@H](C)C(=O)N[C@@H](CO)C(=O)N[C@@H](C(C)C)C(=O)N[C@@H](CCC(=O)O)C(=O)N[C@H]3CSSC[C@H](NC(=O)[C@H](CCCCN)NC(=O)[C@H](CCCCN)NC(=O)[C@H](CC(N)=O)NC1=O)C(=O)N[C@@H](CCCCN)C(=O)N[C@H](C(=O)N[C@@H](Cc1ccc(O)cc1)C(=O)N1CCC[C@H]1C(=O)N[C@@H](CCCNC(=N)N)C(N)=O)CSSC[C@H](NC(=O)[C@H](CCCCN)NC(=O)[C@H](CCC(N)=O)NC(=O)[C@H](CCCCN)NC3=O)C(=O)N[C@@H](CC(C)C)C(=O)N[C@@H](CCCCN)C(=O)N[C@@H](C)C(=O)N[C@@H]([C@@H](C)CC)C(=O)NCC(=O)N[C@@H](CO)C(=O)N[C@@H]([C@@H](C)CC)C(=O)N[C@@H](Cc1ccccc1)C(=O)NCC(=O)N[C@@H](CCCCN)C(=O)N2 [compound 66] (H-S[Nle]D[Nle]RCSASVECKQKCLKAIGSIFGKC[Nle]NKKCKCYPR-NH2; disulfide 6-27, 12-32, 16-34) as the compound, how does the IC50 read?
Answer: Its IC50 is 0.47 nM.

Question: With “H-LRCSASVECKQKCLKAIGSIFGKC[Nle]NKKCKCYPR-OH (cysteine pairing not given here) [compound 103]” as the compound, how does the IC50 read?
Answer: Its IC50 is 2.1 nM.

Question: Which IC50 does the source give for CCCC[C@@H]1NC(=O)[C@@H]2CSSC[C@H](NC(=O)[C@H](CCCNC(=N)N)NC(=O)[C@H](CCCC)NC(=O)[C@H](CC(=O)O)NC(=O)[C@H](CCCC)NC(=O)[C@@H](N)C(C)C)C(=O)N[C@@H](CO)C(=O)N[C@@H](C)C(=O)N[C@@H](CO)C(=O)N[C@@H](C(C)C)C(=O)N[C@@H](CCC(=O)O)C(=O)N[C@H]3CSSC[C@H](NC(=O)[C@H](CCCCN)NC(=O)[C@H](CCCCN)NC(=O)[C@H](CC(N)=O)NC1=O)C(=O)N[C@@H](CCCCN)C(=O)N[C@H](C(=O)N[C@@H](Cc1ccc(O)cc1)C(=O)N1CCC[C@H]1C(=O)N[C@@H](CCCNC(=N)N)C(N)=O)CSSC[C@H](NC(=O)[C@H](CCCCN)NC(=O)[C@H](CCC(N)=O)NC(=O)[C@H](CCCCN)NC3=O)C(=O)N[C@@H](CC(C)C)C(=O)N[C@@H](CCCCN)C(=O)N[C@@H](C)C(=O)N[C@@H]([C@@H](C)CC)C(=O)NCC(=O)N[C@@H](CO)C(=O)N[C@@H]([C@@H](C)CC)C(=O)N[C@@H](Cc1ccccc1)C(=O)NCC(=O)N[C@@H](CCCCN)C(=O)N2 [compound 67] (H-V[Nle]D[Nle]RCSASVECKQKCLKAIGSIFGKC[Nle]NKKCKCYPR-NH2; disulfide 6-27, 12-32, 16-34) here?
Answer: The IC50 was 0.98 nM.

Question: How did the IC50 turn out when “H-S[Nle]D[Nle]RCSASVECKEKCLQAIGSIFGKC[Nle]NKKCKCYPR-NH2 (cysteine pairing not given here) [compound 82]” was run?
Answer: Its IC50 is 0.69 nM.

Question: How did the IC50 turn out when “H-S[Nle]D[Nle]RCSASVECKQKCLKAIGSIFGKCMNKKCKC[F(4-NO2)]PR-NH2 [compound 88]” was run?
Answer: Its IC50 is 1.3 nM.

Question: How did the IC50 turn out when “LRCSASVECKQKCLAAIGSIFGKCMNKKCKCYPR [compound 105]” was run?
Answer: Its IC50 is 0.36 nM.

Question: How did the IC50 turn out when “H-P[Nle]D[Nle]RCSASVECKEKCL[homo-Gln]AIGSIFGKC[Nle]NKKCKCYPR-NH2 [compound 83]” was run?
Answer: The IC50 was 1.4 nM.

Question: With “NMDMRCSASVECKQKCLKAIGSIFGKCMNKKCVCYPR [compound 42]” as the compound, how does the IC50 read?
Answer: Its IC50 is 2.8 nM.

Question: With CC[C@H](C)[C@@H]1NC(=O)[C@H](C)NC(=O)[C@H](CCCCN)NC(=O)[C@H](CC(C)C)NC(=O)[C@@H]2CSSC[C@@H](C(=O)N[C@@H](Cc3ccc(O)cc3)C(=O)N3CCC[C@H]3C(=O)N[C@@H](CCCNC(=N)N)C(N)=O)NC(=O)[C@H](CCCCN)NC(=O)[C@@H]3CSSC[C@H](NC(=O)[C@H](CCC(=O)O)NC(=O)[C@H](C(C)C)NC(=O)[C@H](CO)NC(=O)[C@H](C)NC(=O)[C@H](CO)NC(=O)[C@@H](NC(=O)[C@H](CCCNC(=N)N)NC(=O)[C@H](CCSC)NC(=O)[C@H](CC(=O)O)NC(=O)[C@H](CCSC)NC(=O)[C@@H](N)CC(N)=O)CSSC[C@H](NC(=O)[C@H](CCCCN)NC(=O)CNC(=O)[C@H](Cc4ccccc4)NC(=O)[C@H]([C@@H](C)CC)NC(=O)[C@H](CO)NC(=O)CNC1=O)C(=O)N[C@@H](CCSC)C(=O)N[C@@H](CC(N)=O)C(=O)N[C@@H](CCCCN)C(=O)N[C@@H](CCCCN)C(=O)N3)C(=O)N[C@@H](CCCCN)C(=O)N[C@@H](CC(C)C)C(=O)N[C@@H](CCCCN)C(=O)N2 [compound 36] (H-NMDMRCSASVECKLKCLKAIGSIFGKCMNKKCKCYPR-NH2; disulfide 6-27, 12-32, 16-34) as the compound, how does the IC50 read?
Answer: Its IC50 is 0.75 nM.

Question: “H-S[Nle]D[Nle]RCSASVECKQKCLKAIGSIFGKC[Nle]NKKCKCYPR-OH (cysteine pairing not given here) [compound 80]” was tested. Which IC50 did it give?
Answer: Its IC50 is 0.52 nM.

Question: Which IC50 does the source give for CCCC[C@@H]1NC(=O)[C@@H]2CSSC[C@H](NC(=O)[C@H](CCCNC(=N)N)NC(=O)[C@H](CCCC)NC(=O)[C@H](CC(=O)O)NC(=O)[C@H](CCCC)NC(=O)[C@@H](N)Cc3c[nH]cn3)C(=O)N[C@@H](CO)C(=O)N[C@@H](C)C(=O)N[C@@H](CO)C(=O)N[C@@H](C(C)C)C(=O)N[C@@H](CCC(=O)O)C(=O)N[C@H]3CSSC[C@H](NC(=O)[C@H](CCCCN)NC(=O)[C@H](CCCCN)NC(=O)[C@H](CC(N)=O)NC1=O)C(=O)N[C@@H](CCCCN)C(=O)N[C@H](C(=O)N[C@@H](Cc1ccc(O)cc1)C(=O)N1CCC[C@H]1C(=O)N[C@@H](CCCNC(=N)N)C(N)=O)CSSC[C@H](NC(=O)[C@H](CCCCN)NC(=O)[C@H](CCC(N)=O)NC(=O)[C@H](CCCCN)NC3=O)C(=O)N[C@@H](CC(C)C)C(=O)N[C@@H](CCCCN)C(=O)N[C@@H](C)C(=O)N[C@@H]([C@@H](C)CC)C(=O)NCC(=O)N[C@@H](CO)C(=O)N[C@@H]([C@@H](C)CC)C(=O)N[C@@H](Cc1ccccc1)C(=O)NCC(=O)N[C@@H](CCCCN)C(=O)N2 [compound 64] (H-H[Nle]D[Nle]RCSASVECKQKCLKAIGSIFGKC[Nle]NKKCKCYPR-NH2; disulfide 6-27, 12-32, 16-34) here?
Answer: Its IC50 is 1.2 nM.

Question: Which IC50 does the source give for “H-P[Nle]E[Nle]RCSASVECKQKCLLAIGSIFGKC[Nle]NKKCKCYPR-OH (cysteine pairing not given here) [compound 93]” here?
Answer: The IC50 was 0.5 nM.

Question: How did the IC50 turn out when “H-S[Nle]D[Nle]RCSASVECKQKCLKAIGSIFGKCMNKKCKC[F(4-CH3)]PR-NH2 [compound 89]” was run?
Answer: The IC50 was 0.54 nM.

Question: For “H-S[Nle]D[Nle]RCSASVECKQKCLKAIGSIFGKCMNKKCKCYQ-NH2 (cysteine pairing not given here) [compound 74]”, which IC50 is on record?
Answer: Its IC50 is 1.6 nM.

Question: “H-N[Nle]D[Nle]RCSASVECEQKCLKAIGSIFGKC[Nle]NKKCKCYPR-NH2 (cysteine pairing not given here) [compound 47]” was tested. Which IC50 did it give?
Answer: The IC50 was 0.99 nM.

Question: With “H-PIDERCSASVECKQKCLAAIGSIFGKC[Nle]NKKCKCYPR-OH (cysteine pairing not given here) [compound 94]” as the compound, how does the IC50 read?
Answer: Its IC50 is 0.87 nM.

Question: How did the IC50 turn out when “H-CSASVECKQKCLKAIGCIFGKC[Nle]NKKCKCYPC-NH2 (cysteine pairing not given here) [compound 84]” was run?
Answer: Its IC50 is 1.1 nM.

Question: Which IC50 does the source give for “H-P[Nle]D[Nle]RCSASVECKQKCLKAIGCIFGKC[Nle]NKKCKCYPC-OH (cysteine pairing not given here) [compound 86]” here?
Answer: Its IC50 is 1.1 nM.

Question: With “NMDMRCSASVECKQKCLKAIHSIFGKCMNKKCKCYPR [compound 37]” as the compound, how does the IC50 read?
Answer: The IC50 was 0.7 nM.

Question: Which IC50 does the source give for “Ac-LRCSASVECKQKCLAAIGSIFGKC[Nle]NKKCKCYPR-OH (cysteine pairing not given here) [compound 104]” here?
Answer: Its IC50 is 0.9 nM.

Question: With “H-S[Nle]D[Nle]RCSASVECK[2-Amino-5-carboxypentanoyl]KCLKAIGSIFGKCMNKKCKCYPR-NH2 [compound 73]” as the compound, how does the IC50 read?
Answer: The IC50 was 0.52 nM.

Question: How did the IC50 turn out when “H-P[Nle]D[Nle]RCSASVECAQKCLAAIGSIFGKCMNKKCKCYPR-OH (cysteine pairing not given here) [compound 96]” was run?
Answer: Its IC50 is 0.32 nM.

Question: For “H-S[Nle]D[Nle]RCSASVECVQKCLKAIGSIFGKCMNKKCKCYPR-NH2 (cysteine pairing not given here) [compound 72]”, which IC50 is on record?
Answer: The IC50 was 0.47 nM.

— patent publication US20240182531A1, “KV1.3 Blockers” (priority 2021, published 2024)
